# Several values for one entry are separate records, joined by “and”; a condition that tells them apart may be missing. Equal values may be shown once.
# Target: EGFR (UniProt P00533)
# Sequence (P00533 whole entry, looked up): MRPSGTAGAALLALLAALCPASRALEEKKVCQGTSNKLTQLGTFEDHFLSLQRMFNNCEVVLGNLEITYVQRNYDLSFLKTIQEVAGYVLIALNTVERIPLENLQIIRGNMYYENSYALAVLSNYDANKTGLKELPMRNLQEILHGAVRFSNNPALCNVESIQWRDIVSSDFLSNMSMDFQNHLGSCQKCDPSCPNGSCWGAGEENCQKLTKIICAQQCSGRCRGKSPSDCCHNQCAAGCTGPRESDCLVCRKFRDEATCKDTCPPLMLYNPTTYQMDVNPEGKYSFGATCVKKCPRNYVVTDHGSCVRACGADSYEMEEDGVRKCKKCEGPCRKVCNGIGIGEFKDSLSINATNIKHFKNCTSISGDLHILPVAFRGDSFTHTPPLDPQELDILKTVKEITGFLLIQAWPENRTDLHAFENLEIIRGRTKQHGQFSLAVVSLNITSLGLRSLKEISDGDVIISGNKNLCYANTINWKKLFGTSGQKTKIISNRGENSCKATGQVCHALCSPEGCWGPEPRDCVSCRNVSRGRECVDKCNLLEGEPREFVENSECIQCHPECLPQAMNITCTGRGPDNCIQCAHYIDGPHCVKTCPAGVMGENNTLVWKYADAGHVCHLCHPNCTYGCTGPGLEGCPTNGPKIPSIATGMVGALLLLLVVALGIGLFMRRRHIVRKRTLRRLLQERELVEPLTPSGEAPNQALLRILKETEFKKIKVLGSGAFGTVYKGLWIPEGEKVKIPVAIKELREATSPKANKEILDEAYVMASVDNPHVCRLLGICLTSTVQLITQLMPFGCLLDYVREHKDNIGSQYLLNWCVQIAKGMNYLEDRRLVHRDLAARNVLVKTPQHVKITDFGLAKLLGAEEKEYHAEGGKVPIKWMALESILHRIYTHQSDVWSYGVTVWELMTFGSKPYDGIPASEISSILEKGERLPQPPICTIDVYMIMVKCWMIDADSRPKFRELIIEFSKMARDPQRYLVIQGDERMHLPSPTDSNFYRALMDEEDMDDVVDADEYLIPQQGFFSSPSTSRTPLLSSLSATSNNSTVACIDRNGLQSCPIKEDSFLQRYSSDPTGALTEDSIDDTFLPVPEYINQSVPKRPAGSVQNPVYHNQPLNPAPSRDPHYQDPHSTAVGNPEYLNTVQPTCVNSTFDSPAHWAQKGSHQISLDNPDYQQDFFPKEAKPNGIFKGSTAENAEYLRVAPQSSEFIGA
row,SMILES,IC50
1,COc1ccc2c(c1)nc(NCc1ccc(F)cc1)n2-c1ncnc(Nc2cc(OC)c(OC)c(OC)c2)n1.COc1ccc2nc(NCc3ccc(F)cc3)n(-c3ncnc(Nc4cc(OC)c(OC)c(OC)c4)n3)c2c1,2.4 to 3.5 µg/mL
2,COc1cc(Nc2ncnc(-c3cccnc3NCc3ccc(F)cc3)n2)cc(OC)c1OCCN1CCOCC1,2.4 to 3.5 µg/mL
3,COc1cc(Nc2ncnc(N3CCN(C(=O)OC(C)(C)C)CC3)n2)cc(OC)c1OC,> 4.5 µg/mL
4,COc1cc(Nc2ncnc(Nc3cc(-c4ccco4)n[nH]3)n2)cc(OC)c1OC,< 0.4 µg/mL
5,COc1cc(Nc2ncnc(Nc3cc(Cl)c(O)c(Cl)c3)n2)cc(OC)c1OC,< 0.4 µg/mL
6,c1ccc(-c2ncnc(Nc3ccc(OCCCN4CCOCC4)cc3)n2)cc1,> 4.5 µg/mL
7,COc1cc(OC)cc(-c2nnc(Nc3ncnc(Nc4cc(OC)c(OC)c(OC)c4)n3)[nH]2)c1,> 4.5 µg/mL
8,COc1ccc2c(c1)nc(NCc1ccccc1)n2-c1ncnc(Nc2cc(OC)c(OC)c(OC)c2)n1.COc1ccc2nc(NCc3ccccc3)n(-c3ncnc(Nc4cc(OC)c(OC)c(OC)c4)n3)c2c1,0.4 to 2.4 µg/mL
9,COc1cc(Nc2ncnc(N(CC(=O)OC(C)(C)C)c3ccc4c(c3)OCO4)n2)cc(OC)c1OC,2.4 to 3.5 µg/mL
10,COc1ccc(CNc2nc3cc(OC)ccc3n2-c2ncnc(Nc3cc(OC)c(OC)c(OC)c3)n2)cc1.COc1ccc(CNc2nc3ccc(OC)cc3n2-c2ncnc(Nc3cc(OC)c(OC)c(OC)c3)n2)cc1,> 4.5 µg/mL
11,COc1cc(Nc2ncnc(Nc3ccc(NC(=O)OC(C)(C)C)cc3)n2)cc(OC)c1OC,> 4.5 µg/mL
12,COc1cc(Nc2ncnc(-c3cccnc3NCc3cccc4ccccc34)n2)cc(OC)c1OC,> 4.5 µg/mL
13,C=CCNc1ncccc1-c1ncnc(Nc2ccc(C(N)=O)cc2)n1,> 4.5 µg/mL
14,c1csc(-c2ncnc(Nc3ccc(N4CCOCC4)cc3)n2)c1,> 4.5 µg/mL
15,Fc1ccc(CNc2ncccc2-c2ncnc(Nc3cccc(Cn4ccnc4)c3)n2)cc1,0.4 to 2.4 µg/mL

# The next lines start with the values.
row,IC50,SMILES
1,> 4.5 µg/mL,COc1cc(Nc2ncnc(Nc3nc4ccccc4s3)n2)cc(OC)c1OC
2,> 4.5 µg/mL,COC(=O)c1ccc(Nc2ncnc(Nc3cc(-c4ccco4)n[nH]3)n2)cc1
3,> 4.5 µg/mL,O=c1[nH]c2ccccc2n1-c1ncnc(Nc2ccc(Cl)cc2Cl)n1
4,> 4.5 µg/mL,CC(C)Nc1ncccc1-c1ncnc(Nc2ccc(C(N)=O)cc2)n1
5,< 0.4 µg/mL,N#CCc1ccc(Nc2ncnc(Nc3ccc4c(cnn4Cc4ccccc4)c3)n2)cc1
6,> 4.5 µg/mL,COc1cc(Nc2ncnc(-n3c(Nc4ccc(C)cc4)nc4ccccc43)n2)cc(OC)c1OC
7,3.5 to 4.5 µg/mL and 2.4 to 3.5 µg/mL,COc1cc(Nc2ncnc(-n3c(NC4CCCc5ccccc54)nc4ccccc43)n2)cc(OC)c1OC (stereo not drawn)
8,< 0.4 µg/mL,COc1cccc(Nc2ncnc(N(C)c3cccc(Cl)c3)n2)c1
9,< 0.4 µg/mL,COc1ccc(Nc2ncnc(N(C)c3ccc(Cl)cc3)n2)cc1OC
10,2.4 to 3.5 µg/mL,COc1cc(Nc2ncnc(Nc3ccc(O)cc3C)n2)cc(OC)c1OC
11,> 4.5 µg/mL,COc1cc(Nc2ncnc(-n3c(NCc4cccnc4)nc4ccccc43)n2)cc(OC)c1OC
12,> 4.5 µg/mL,Clc1ncnc(Nc2cc(-c3ccccc3)n[nH]2)n1
13,< 0.4 µg/mL,COc1cc(Nc2ncnc(N(C)c3cccc(Cl)c3)n2)cc(OC)c1
14,0.4 to 2.4 µg/mL,O=c1[nH]c2ccccc2n1-c1ncnc(Nc2cccc(NS(=O)(=O)c3ccc([N+](=O)[O-])cc3)c2)n1
15,< 0.4 µg/mL,CN(c1cccc(Br)c1)c1ncnc(Nc2cccc(Cc3nnn[nH]3)c2)n1
16,0.4 to 2.4 µg/mL,COC(=O)c1ccc(-c2cc(Nc3ncnc(NC4=NC(=O)CS4)n3)[nH]n2)cc1
17,< 0.4 µg/mL,CN(c1cccc(Cl)c1)c1ncnc(Nc2ccc(F)c(Cl)c2)n1
18,> 4.5 µg/mL,COC(=O)c1ccc(Nc2ncnc(-c3ccccc3)n2)cc1
19,2.4 to 3.5 µg/mL,COC(=O)c1ccc(-c2cc(Nc3ncnc(NCc4cccs4)n3)[nH]n2)cc1
20,> 4.5 µg/mL,COc1cc(Nc2ncnc(-c3ccc(C)cc3)n2)cc(OC)c1OC
21,< 0.4 µg/mL,COc1cc(Nc2ncnc(Nc3cc(Cl)ccc3C)n2)cc(OC)c1OC
22,> 4.5 µg/mL,COc1cc(Nc2ncnc(-n3c(NCc4ccc(Br)cc4)nc4ccccc43)n2)cc(OC)c1OC
23,> 4.5 µg/mL,O=c1[nH]c2ccccc2n1-c1ncnc(Nc2ccccn2)n1

# — the Kinase Knowledgebase extract (Sharma et al. 2016)
